Each structure is given as a SMILES string.

In one assay the target is recombinant human HDACs (Homo sapiens). Put plainly: HDAC enzymatic assay. It is filed as biochemical. The settings on record: 5 nM HDAC enzyme, 5 h pre-incubation, 17 h reaction at 25° C.; isoform not given. Here is the method: All recombinant human HDACs were purchased from BPS Bioscience. The substrate, FAM-TSRHK(AC)KL-CONH, was synthesized at NanoSyn. Final assay reactions contained 100 mM HEPES (pH 7.5), 50 mM KCl, 0.1% BSA, 0.01% Triton X-100, 1% DMSO, 1 uM substrate and 5 nM HDAC enzyme. Enzyme and compounds were pre-incubated at 25° C. for 5 hours and reactions were initiated by addition of substrate. 10 uL reactions were incubated for 17 hours at 25° C. and terminated by the addition of 40 uL of buffer containing 100 mM HEPES (pH 7.5), 0.1% BSA, 0.01% Triton X-100 and 0.05% SDS. Substrate and product peptides present in each sample were separated electrophoretically using the LabChip 3000 capillary electrophoresis instrument. Change in the relative fluorescence intensity of the substrate and product peaks reflects enzyme activity. Reaction progress was determined as the product to sum ratio (PSR):P/(S+P), where P is the peak height of the product peptide and S is the peak height of the substrate peptide. Reactions were performed in duplicate at 12 concentrations, (3× serial dilutions starting at 30 uM). IC50 values were calculated using a 4 Parameter Logistic Model.
For `Cn1cc2c(n1)CN(C(=O)Nc1nc(-c3ccc(F)cc3)ccc1N)C2` [Compound 257], the IC50 fell in the range of 100 to 500 nM.

Staying with this assay, now noted: 5 nM HDAC enzyme, 5 h pre-incubation, 17 h reaction at 25° C.; isoform not given; read-out: IC50.
For the compound `CN1CCC(N2C[C@@H]3C(C(=O)Nc4nc(-c5ccc(F)cc5)ccc4N)[C@@H]3C2)CC1` (stereo partly drawn) [Compound 263], the IC50 fell in the range of 500 to 5000 nM.
Same read-out and setting: the result for `Nc1ccc(-c2ccc(F)cc2)nc1NC(=O)N1Cc2ccc(CO)cc2C1` [Compound 366] reads 100 to 500 nM; that for `Nc1cn(-c2ccc(F)cc2)nc1NC(=O)N1CCN(C(=O)[C@@H]2C[C@H]2c2ccccc2)CC1` [Compound 125], 500 to 5000 nM.
In the case of `Nc1ccc(-c2ccco2)nc1NC(=O)N1CC2CC(N3CC(F)C3)CC2C1` (stereo not drawn) [Compound 189], the IC50 was more than 5000 nM.
Same read-out and setting: to `Nc1ccc(-c2ccccc2)nc1NC(=O)C1CCN(Cc2cccnc2)CC1` [Compound 377] belongs more than 5000 nM.
`Nc1ccc(-c2ccc(F)cc2)nc1NC(=O)N1Cc2cc(CN3CCC3)cnc2C1` [Compound 272]: the IC50 fell in the range of 100 to 500 nM.
On the same count and under the same terms, to `Nc1ccc(-c2ccc(F)cc2)nc1NC(=O)N1Cc2cnc(N3CCC3)cc2C1` [Compound 147] belongs 100 to 500 nM; to `CN1CCC(c2ccc3c(c2)CN(C(=O)Nc2nn(-c4ccccc4)cc2N)C3)CC1` [Compound 383], 100 to 500 nM; to `Nc1ccc(-c2ccccc2)nc1NC(=O)C1CCN(Cc2ccccc2F)CC1` [Compound 379], more than 5000 nM.
Same read-out and setting: to `CC(=O)N1CCC(C(=O)Nc2nn(-c3ccccc3)cc2N)CC1` [Compound 358] belongs more than 5000 nM; to `Nc1ccc(-c2ccc(F)cc2)nc1NC(=O)N1CC2CC(N3CCC3)CC2C1` (stereo not drawn) [Compound 143], 500 to 5000 nM; to `Nc1ccc(-n2cccn2)nc1NC(=O)N1Cc2cc(F)cnc2C1` [Compound 185], 500 to 5000 nM.
Same read-out and setting: the result for `Nc1ccc(-c2ccc(F)cc2)nc1NC(=O)N1CC2CCC(C1)O2` [Compound 406] reads more than 5000 nM; that for `Nc1ccc(-n2cccn2)nc1NC(=O)N1CC2CC(N3CC(F)C3)CC2C1` (stereo not drawn) [Compound 190], more than 5000 nM; that for `CN1CC(n2ncc3c2CN(C(=O)Nc2nc(-c4ccc(F)cc4)ccc2N)C3)C1` [Compound 246], more than 5000 nM.
As for `Cc1cnc(C(=O)Nc2nc(-c3ccc(F)cc3)ccc2N)s1` [Compound 226], the IC50 is 100 to 500 nM.
Same read-out and setting: to `CN1CCC(N2CCC(C(=O)Nc3nc(-c4ccc(F)cc4)ccc3N)CC2)CC1` [Compound 368] belongs 500 to 5000 nM; to `CN1CCN(c2ccc3c(n2)CN(C(=O)Nc2nc(-c4ccc(F)cc4)ccc2N)C3)CC1` [Compound 391], 100 to 500 nM; to `COCc1ccc2c(c1)CN(C(=O)Nc1nc(-c3cccnc3)ccc1N)C2` [Compound 393], 500 to 5000 nM.
On the same count and under the same terms, to `Nc1ccc(-c2ccc(F)cc2)nc1NC(=O)N1Cc2cc(CN3CCC(F)(F)C3)cnc2C1` [Compound 273] belongs 100 to 500 nM.
For the compound `CN(C)Cc1cc2c(cn1)CN(C(=O)Nc1nc(-c3ccc(F)cc3)ccc1N)C2` [Compound 162], the IC50 is 100 to 500 nM.
Same read-out and setting: to `Nc1ccc(-c2ccc(F)cc2)nc1NC(=O)N1Cc2cccc(N3CCCC3)c2C1` [Compound 249] belongs more than 5000 nM; to `Nc1cn(-c2ccccc2)nc1NC(=O)N1CC2CCCC2C1` (stereo not drawn) [Compound 384], more than 5000 nM.
`Nc1cn(-c2ccccc2)nc1NC(=O)C1CCN(C2COC2)CC1` [Compound 359]: the IC50 was more than 5000 nM.
Turning to `Nc1ccc(-c2ccc(F)cc2)nc1NC(=O)N1Cc2cc(N3CCC3)cnc2C1` [Compound 157], the IC50 fell in the range of 100 to 500 nM.
Consider `Nc1ccc(-c2ccco2)nc1NC(=O)N1Cc2ccncc2C1` [Compound 372], for which the concentration for half-maximal inhibition (IC50) was in the range of 500 to 5000 nM.
On the same count and under the same terms, to `Nc1cn(-c2ccccc2)nc1NC(=O)N1CCNCC1` [Compound 357] belongs more than 5000 nM; to `Nc1ccc(-c2cccnc2)nc1NC(=O)N1CC2(CCNCC2)C1` [Compound 220], more than 5000 nM; to `Nc1ccc(-c2ccc(F)cc2)nc1NC(=O)N1Cc2cc(N3CCOCC3)cnc2C1` [Compound 158], 100 to 500 nM.
Same read-out and setting: the result for `CC(O)c1ccc2c(c1)CN(C(=O)Nc1nc(-c3ccc(F)cc3)ccc1N)C2` (stereo not drawn) [Compound 394] reads 100 to 500 nM; that for `CN1CCC(N2CC3CN(C(=O)Nc4nc(-c5ccc(F)cc5)ccc4N)CC3C2)CC1` (stereo not drawn) [Compound 169], 500 to 5000 nM.
Still for that read-out and setting: the result for `Nc1ccc(-c2ccc(F)cc2)nc1NC(=O)N1CCC(C(F)(F)F)C1` (stereo not drawn) [Compound 390] reads 500 to 5000 nM; that for `Nc1ccc(-c2cccnc2)nc1NC(=O)N1Cc2nccnc2C1` [Compound 214], 500 to 5000 nM.
For `CN1CCN(c2ccc3c(c2)CN(C(=O)Nc2nc(-c4ccc(F)cc4)ccc2N)C3)CC1` [Compound 374], the IC50 lay in the range of 100 to 500 nM.

A further assay deals with SH-SY5Y cells. Put plainly: Cell assay: SH-SY5Y cells, HDAC-Glo 2 reagent. It is filed as cell-based. The settings on record: Homo sapiens, 5 h incubation, CI-994 at 100 uM = 100% inhibition. Here is the method: SH-SY5Y cells (Sigma) were cultured in Eagle's Modified Essential Medium supplemented with 10% fetal bovine serum and pen/strep. Twenty-four hours prior to compound dosing 20 uL of cells were plated in white 384 well plates at a density of 1,500 cells/well. Compounds were serially diluted in neat DMSO and then diluted 1:100 v/v into media without FBS and mixed. Media was removed from the plated cells and the diluted compounds in serum free media (1% v/v final DMSO) were added and incubated at 37° C. for five hours. Ten uL of HDAC-Glo 2 reagent with 0.1% Triton X-100 was then added, the plate was mixed and allowed to develop at room temperature for 100 minutes. Plates were then read with a Spectramax LMax luminometer employing a 0.4 s integration time. Dose response curves were constructed with normalized data where CI-994 at 100 uM was defined as 100% inhibition and DMSO alone as 0% inhibition.
As for `CN1CCC(N2C[C@@H]3C(C(=O)Nc4nc(-c5ccc(F)cc5)ccc4N)[C@@H]3C2)CC1` (stereo partly drawn) [Compound 263], the 50% effective concentration (EC50) was 500 to 5000 nM.

The values above are taken from patent publication US10919902B2, “Hetero-halo inhibitors of histone deacetylase” (Alkermes, Inc., priority 2015, dated 2021).
